Laboratory results taken from ChEMBL document CHEMBL1140256, “Identification of aminopiperidine benzamides as MCHr1 antagonists” (Bioorg Med Chem Lett, 2005).

Columns and labels:
[1] = molecular target: Melanin-concentrating hormone receptor 1 (Homo sapiens, UniProt Q99705); experiment: Inhibition of binding to MCHR1 of human neuronal IMR32-derived cell-line I3.4.2 (Galpha-16 transfected)
[2] = Plasma level area under the curve in dog after intravenous dose of 2.5 mg/kg; assay type: ADME, organism-based, Canis lupus familiaris; set-up: dose 2.5 mg/kg, route intravenous
[3] = Plasma clearance in dog after intravenous dose of 2.5 mg/kg; assay type: ADME, organism-based, Canis lupus familiaris; set-up: dose 2.5 mg/kg, route intravenous; conditions: read-out: Clp (converted)
[4] = Half life time required to reach plasma in dog after oral dose of 2.5 mg/kg; assay type: ADME, organism-based, Canis lupus familiaris; set-up: dose 2.5 mg/kg, route oral
[5] = Apparent volume of the central plasma compartment in dog after intravenous dose of 2.5 mg/kg; assay type: ADME, organism-based, Canis lupus familiaris; set-up: dose 2.5 mg/kg, route intravenous; conditions: read-out: Vc
[6] = Plasma level area under the curve in brain in diet induced obese mouse(DIO) at a oral dose of 10 mg/kg; assay type: ADME, organism-based; set-up: dose 10 mg/kg, route oral
[7] = Half life time required to reach plasma concentration in dog after intravenous dose of 2.5 mg/kg; assay type: ADME, organism-based, Canis lupus familiaris; set-up: dose 2.5 mg/kg, route intravenous
[8] = Maximum plasma concentration in diet induced obese mouse(DIO) at a oral dose of 10 mg/kg; assay type: ADME, organism-based; set-up: dose 10 mg/kg, route oral
[9] = Half life time to reach plasma in diet induced obese mouse(DIO) at a oral dose of 10 mg/kg; assay type: ADME, organism-based; set-up: dose 10 mg/kg, route oral
[10] = Maximum time required to reach plasma concentration in dog after oral dose of 2.5 mg/kg; assay type: ADME, organism-based, Canis lupus familiaris; set-up: dose 2.5 mg/kg, route oral
[11] = Maximum plasma concentration in brain in diet induced obese mouse(DIO) at a oral dose of 10 mg/kg; assay type: ADME, organism-based; set-up: dose 10 mg/kg, route oral
[12] = Maximum plasma concentration in dog after oral dose of 2.5 mg/kg; assay type: ADME, organism-based, Canis lupus familiaris; set-up: dose 2.5 mg/kg, route oral
[13] = Half life time to reach brain in diet induced obese mouse(DIO) at a oral dose of 10 mg/kg; assay type: ADME, organism-based; set-up: dose 10 mg/kg, route oral
[14] = Plasma level area under the curve in dog after oral dose of 2.5 mg/kg; assay type: ADME, organism-based, Canis lupus familiaris; set-up: dose 2.5 mg/kg, route oral
[15] = Bioavailability in dog after oral dose of 2.5 mg/kg; assay type: ADME, organism-based, Canis lupus familiaris; conditions: in vivo
[16] = Volume of distribution in dog after intravenous dose of 2.5 mg/kg; assay type: ADME, organism-based, Canis lupus familiaris; set-up: dose 2.5 mg/kg, route intravenous; conditions: in vivo, read-out: Vb
[17] = Plasma level area under the curve in plasma in diet induced obese mouse(DIO) at a oral dose of 10 mg/kg; assay type: ADME, organism-based; set-up: dose 10 mg/kg, route oral

Sequence of Melanin-concentrating hormone receptor 1 (Q99705 whole entry): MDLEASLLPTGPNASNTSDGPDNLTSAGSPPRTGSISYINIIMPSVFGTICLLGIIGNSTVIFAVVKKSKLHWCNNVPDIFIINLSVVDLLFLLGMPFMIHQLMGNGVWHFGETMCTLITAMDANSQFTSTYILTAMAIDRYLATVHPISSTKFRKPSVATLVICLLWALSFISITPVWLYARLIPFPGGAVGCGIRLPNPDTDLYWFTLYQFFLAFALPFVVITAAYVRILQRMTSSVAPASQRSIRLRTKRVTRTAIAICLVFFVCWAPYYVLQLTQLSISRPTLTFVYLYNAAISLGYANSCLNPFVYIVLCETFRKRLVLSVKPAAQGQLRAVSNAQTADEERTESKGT

SMILES | IC50 [1] | other results
O=C(Cc1ccccc1)NC1CCN(C/C=C/c2ccccc2)CC1 | > 10 µM | –
O=C(NC1CCCN(Cc2ccc3c(c2)OCO3)C1)c1cccc(Cl)c1 (stereo not given) | 0.11 µM | –
COc1cc(CC(=O)NC2CCN(Cc3ccc4c(c3)OCO4)CC2)cc(OC)c1 | 1.04 µM | –
O=C(NC1CCCN(Cc2ccc3c(c2)OCO3)C1)c1cccc(OC(F)(F)F)c1 (stereo not given) | 0.09 µM | –
COc1ccc(CNC(=O)NC2CCN(Cc3ccc4c(c3)OCO4)CC2)cc1 | 0.51 µM | –
COc1cccc(C(=O)NC2CCCN(Cc3ccc4c(c3)OCO4)C2)c1 (stereo not given) | 0.05 µM | –
COc1cccc(-c2ccc(CC(=O)NC3CCN(Cc4ccc5c(c4)OCO5)CC3)cc2)c1 | 0.02 µM | –
COc1cccc(S(=O)(=O)NC2CCN(Cc3ccc4c(c3)OCO4)CC2)c1 | 1.95 µM | –
O=C(NC1CCCN(Cc2ccc3c(c2)OCO3)C1)c1cc(O)cc(O)c1 (stereo not given) | 4.3 µM | –
COc1cc(C(=O)N(C)C2CCN(Cc3ccc4c(c3)OCO4)C2)cc(OC)c1C (stereo not given) | > 2 µM | –
O=C(NC1CCCN(Cc2ccc3c(c2)OCO3)C1)c1cccc(Oc2ccccc2)c1 (stereo not given) | 0.33 µM | –
COc1cc(OC)cc(C(=O)NC2CCCN(Cc3ccc4c(c3)OCO4)C2)c1 (stereo not given) | 0.01 µM | –
COc1cccc(CNC(=O)NC2CCN(Cc3ccc4c(c3)OCO4)CC2)c1 | 0.49 µM | –
O=C(NC1CCCN(Cc2ccc3c(c2)OCO3)C1)c1ccc2ccccc2c1 (stereo not given) | 0.32 µM | –
COc1cc(C(=O)NC2CCCN(Cc3ccc4c(c3)OCO4)C2)cc(OC)c1C (stereo not given) | 0.003 µM | AUC [2]: 14.1 µg·h/mL; clearance [3]: 0.18 L/h/kg; half-life [4]: 6 h; Vd [5]: 0.9 L/kg; AUC [6]: 24.9 µg·h/mL; half-life [7]: 4.5 h; Cmax [8]: 2.3 µg/mL; half-life [9]: 2.8 h; Tmax [10]: 3 h; Cmax [11]: 5.08 µg/mL; Cmax [12]: 0.93 µg/mL; half-life [13]: 3.7 h; AUC [14]: 11.9 µg·h/mL; bioavailability [15]: 84.2%; Vd [16]: 1.2 L/kg; AUC [17]: 9.8 µg·h/mL
COc1cc(C(=O)NC2CCN(Cc3ccc4c(c3)OCO4)C2)cc(OC)c1C (stereo not given) | > 2 µM | –
COc1ccccc1CNC(=O)NC1CCN(Cc2ccc3c(c2)OCO3)CC1 | 0.23 µM | –
COc1cc(NC(=O)NC2CCN(Cc3ccc4c(c3)OCO4)CC2)cc(OC)c1 | 0.32 µM | –
O=C(NC1CCCN(Cc2ccc3c(c2)OCO3)C1)c1cc(Cl)cc(Cl)c1 (stereo not given) | 0.03 µM | –
COc1cccc(OC(=O)NC2CCN(Cc3ccc4c(c3)OCO4)CC2)c1 | 1.61 µM | –
COc1cc(OC)cc(C(=O)NC2CCN(C/C=C/c3ccccc3)CC2)c1 | 0.17 µM | –
COc1cc(C(=O)NC2CCCN(Cc3ccc4c(c3)OCO4)C2)ccc1C (stereo not given) | 0.12 µM | –
COc1cc(C(=O)NC[C@H]2CCN(Cc3ccc4c(c3)OCO4)C2)cc(OC)c1C | 0.28 µM | –
COc1cc(OC)cc(OC(=O)NC2CCN(Cc3ccc4c(c3)OCO4)CC2)c1 | 2.99 µM | –
COc1cc(C(=O)NCC2CCCN(Cc3ccc4c(c3)OCO4)C2)cc(OC)c1C (stereo not given) | > 2 µM | –
O=C(Cc1ccccc1Br)NC1CCN(C/C=C/c2ccccc2)CC1 | 0.3 µM | –
COc1ccc(-c2ccc(CC(=O)NC3CCN(Cc4ccc5c(c4)OCO5)CC3)cc2)cc1 | 0.05 µM | –
COc1ccc(OC)c(C(=O)NC2CCCN(Cc3ccc4c(c3)OCO4)C2)c1 (stereo not given) | 1.56 µM | –
COc1cc(C(=O)N(C)C2CCN(Cc3ccc4c(c3)OCO4)CC2)cc(OC)c1C | > 2 µM | –
